Results reported in article PMC8198181, “Evaluation of Substituted N-Phenylpiperazine Analogs as D3 vs. D2 Dopamine Receptor Subtype Selective Ligands” (Molecules, 2021).
Where “and” joins values, the source holds several entries; their conditions need not be identical. Identical values can stand only once. Entries after “also recorded” stand apart in the source; their conditions may differ. Like-named read-outs stand apart in the source and are kept apart here.

Experiments:
[1] = target: human D3 dopamine receptor; conditions: read-out: Ki D3 (hD3), previously published; Figure 1 and text; cited from earlier work
[2] = target: T1, human 5-HT1A receptor (Homo sapiens, UniProt P08908); assay: 5-HT1A receptor binding ([3H]8-hydroxy-DPAT displacement, CHO-K1 membranes); conditions: for inhibition at 0.091 µM: single point displacement of [3H]-8-hydroxy-DPAT, 91 nM test compound, CHO-K1, ± S.E.M., n ≥ 3; for 5-HT1A receptor affinity/displacement in words: radioligand displacement assessment at 91 nM
T1 construct: expressed in transfected cells; host or cells: CHO-K1
T1 sequence (P08908 1-422): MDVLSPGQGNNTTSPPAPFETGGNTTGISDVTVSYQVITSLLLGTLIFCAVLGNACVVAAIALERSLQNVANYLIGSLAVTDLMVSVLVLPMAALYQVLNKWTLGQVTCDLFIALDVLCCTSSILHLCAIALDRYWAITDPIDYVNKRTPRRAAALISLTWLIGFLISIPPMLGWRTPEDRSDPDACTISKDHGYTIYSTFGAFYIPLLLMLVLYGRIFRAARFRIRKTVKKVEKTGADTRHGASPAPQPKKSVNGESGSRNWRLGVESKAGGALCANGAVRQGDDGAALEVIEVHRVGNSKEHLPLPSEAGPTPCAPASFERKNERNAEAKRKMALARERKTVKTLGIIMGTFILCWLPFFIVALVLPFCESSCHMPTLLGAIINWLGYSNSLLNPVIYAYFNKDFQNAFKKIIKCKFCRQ
Method: Because the 5-HT1A receptor is a commonly observed off-site binding site for benzamide N-phenylpiperazine ligands, compounds were simultaneously screened for binding of our compounds at the human 5-HT1A receptor expressed in CHO-K1 cells, using the radioligand [^3H]-8-hydroxy-DPAT (8-OH-DPAT) (Table 2). Based upon the analysis of the displacement assay shown in Table 2, the orthosteric compounds 3c–f appeared to bind with low affinity at human 5-HT1A receptors.
10 μg of membranes from CHO-K1 cells expressing the human 5-HT1A receptor were suspended in 50 mM Tris-HCl, 10 mM MgSO4, 0.5 mM EDTA, and 0.1% (w/v) ascorbic acid, pH 7.4 and test ligands (91 nM for single point radioligand displacement assay and 1 nM to 1 μM for full competition assay) were incubated with 0.25 nM [^3H]8-hydroxy-DPAT (PerkinElmer, Boston, MA, USA) for 60 min at room temperature. The nonspecific binding was determined using 10 μM metergoline (Sigma, St. Louis, MO, USA). After incubation, the bound ligands were filtered using an M-24 Brandel filtration system (Brandel, Gaithersburg, MD, USA), collected on glass fiber papers (Whatman grade 934-AH, GE Healthcare Bio-Sciences, Pittsburgh, PA, USA), and the radioactivity was quantitated using a MicroBeta2 Microplate scintillation counter 2450 (PerkinElmer, Boston, MA, USA).

[3] = target: T2, D3 dopamine receptor (Homo sapiens, UniProt P35462); conditions: for D2:D3 Selectivity: ratio of D2 and D3 Ki values (Table 1)
Method: Competitive radioligand binding techniques were used to determine the Ki values of ligands at human D2 and D3 dopamine receptors expressed in stably transfected HEK cells (Table 1).
The final radioligand concentration was approximately equal to the Kd value for the binding of the radioligand. […] For each competition curve, triplicates were performed using two concentrations of inhibitor per decade over five orders of magnitude.
The competition curves were modeled for a single binding site using Bs = Bo − ((Bo + L)/(IC50 + L)) where Bs is the amount of ligand bound to receptor and Bo is the amount of ligand bound to receptor in the absence of competitive inhibitor. L is the concentration of the competitive inhibitor. […] The values for Bs and Bo were constrained using experimentally derived values. The IC50 values were converted to equilibrium dissociation constants (Ki) [50, 51]. Mean Ki values ± S.E.M. are reported for at least three independent experiments.

[4] = target: T2, D3 dopamine receptor; assay: Forskolin-dependent adenylyl cyclase inhibition assay (cAMP-Glo, HEK cells); type: cell-based; parameters: expressed in transfected cells; host or cells: HEK293; conditions: human D3, test compound at 10x Ki, normalized to quinpirole 10,000 nM
Method: (§1) Quinpirole was used as a reference prototypic full agonist and haloperidol was used as a reference prototypic antagonist.
The forskolin-dependent adenylyl cyclase inhibition assay was performed using a cAMP-Glo Assay kit (Promega). For this assay cAMP stimulates protein kinase A (PKA) activity, which leads to a decrease in ATP levels and a decrease in the luciferase-coupled production of light. This is a 96 well plate assay using HEK cells stably transfected to express the human D3 dopamine receptor (10,000 cells/well/0.1 mL complete media). After removing media and rinsing with phosphate buffered saline, cells were incubated with 20 μL of forskolin (6000 nM) and test compound or vehicle. […] After cells, test compound (or vehicle) and forskolin (or vehicle) were incubated for 15 min, cells were lysed using 20 μL lysis buffer (provided with the kit) and mixed for 15 min at room temperature. A cAMP Detection Solution (40 μL) was added to each well, gently mixed for 60 s and incubated at room temperature for 20 min. The Kinase-Glo Solution was added (40 μL) to terminate the PKA reaction. The reaction mixture was gently mixed for 60 s and then incubated at room temperature for 10 min. The remaining ATP was detected via a luciferase reaction. The plates were read using an Enspire Alpha 2390 Multilabel Reader/Luminometer. Haloperidol (200 nM) and quinpirole (10,000 nM) was used as a prototypic reference antagonist and full agonist, respectively.
(§2) Figure 3 Comparison of the Efficacy of Phenylthiophene Analogs for Adenylyl Cyclase Inhibition and β-Arrestin Binding at Human D3 Dopamine Receptors. […] Values were normalized to reference full agonist quinpirole (10,000 nM).

[5] = target: T2, D3 dopamine receptor; assay: β-arrestin binding assay (DiscoverX PathHunter, DRD3-U2OS cells); type: cell-based; parameters: host or cells: U2OS (PathHunter eXpress DRD3-U2OS); conditions: human D3, test compound at 10x Ki, normalized to quinpirole
Method: as §1
The β-arrestin binding assay was performed using a DiscoverX Pathhunter® kit according to the manufacturer’s instructions. PathHunter® eXpress β-Arrestin GPCR cells are engineered to co-express the ProLink™ (PK) tagged GPCR and the Enzyme Acceptor (EA) tagged β-Arrestin. Activation of the GPCR-PK induces β-Arrestin-EA recruitment, forcing complementation of the two β-galactosidase enzyme fragments (EA and PK). The resulting functional enzyme hydrolyzes substrate to generate a chemiluminescent signal. DRD3-U2OS cells were seeded according to kit instructions into white plastic 96-well plates (provided with the kit) 48 h prior to the assay in a volume of 100 μL/well using the Cell Plating Reagent (CPR) provided. Vehicle or test drug, diluted in CPR, was added to the designated wells and incubated for 90 min at 37 °C. Working detection solution (a component provided with the kit) was added to the wells and incubated for 1 h in the dark at room temperature. As discussed for the cyclase assay, an Enspire Alpha 2390 Multilabel Reader/Luminometer was used to detect the luminescent signal with haloperidol and quinpirole used as reference antagonist and full agonist, respectively.
as §2

[6] = target: T2, D3 dopamine receptor; parameters: method as in PMID 15582454; conditions: cited from earlier work

T2 sequence (P35462 whole entry): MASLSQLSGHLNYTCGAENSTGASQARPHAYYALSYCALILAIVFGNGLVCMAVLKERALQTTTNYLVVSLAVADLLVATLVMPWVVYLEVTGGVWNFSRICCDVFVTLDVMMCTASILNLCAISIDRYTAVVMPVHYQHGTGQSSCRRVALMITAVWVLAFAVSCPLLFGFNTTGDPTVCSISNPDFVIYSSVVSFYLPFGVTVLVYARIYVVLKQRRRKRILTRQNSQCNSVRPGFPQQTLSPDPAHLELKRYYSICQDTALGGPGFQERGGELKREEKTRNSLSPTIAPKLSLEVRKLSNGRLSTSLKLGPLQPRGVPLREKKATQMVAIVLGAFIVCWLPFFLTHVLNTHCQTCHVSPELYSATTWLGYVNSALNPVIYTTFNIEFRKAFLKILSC

Row | Compound | inhibition at 0.091 µM [2] [%] | Ki [3] [nM] | D2:D3 Selectivity [3] | 5-HT1A receptor affinity/displacement in words [2] | further results
1 | O=C(NCCCCN1CCN(c2cccc(Cl)c2Cl)CC1)c1ccc(-c2ccccn2)cc1 [PG 01037] | – | – | – | – | Ki [1]: 0.7 nM
2 | CCCCN1CCN(c2ccc(F)cc2OCCF)CC1 [Compound 3f] | 1.7 ± 21.7 | 351 ± 42.1 | 1.0 | – | –
3 | O=C(NCCCCN1CCN(c2ccc(C(F)(F)F)cc2F)CC1)c1ccc(-c2cscn2)cc1 [Compound 7e] | 7.6 ± 6.5 | 30.9 ± 2.6 | – | – | efficacy in adenylyl cyclase inhibition assay [4]: antagonists; efficacy in β-arrestin binding assay [5]: antagonists
4 | N#Cc1ccc(F)c(N2CCN(CCCCNC(=O)c3ccc(-c4ccsc4)cc3)CC2)c1 [Compound 6d] | 2.5 ± 3.5 | 15.5 ± 1.3 | 290 | – | efficacy in adenylyl cyclase inhibition assay [4]: antagonists; efficacy in β-arrestin binding assay [5]: antagonists
5 | O=C(NCCCCN1CCN(c2ccccc2OCCF)CC1)c1ccc(-c2ccsc2)cc1 [LS-3-134] | – | – | – | – | % of maximum efficacy, adenylyl cyclase inhibition assay [6]: 35% and 34.4 ± 1.7%
6 | O=C(NCCCCN1CCN(c2ccc(F)cc2)CC1)c1ccc(-c2cscn2)cc1 [Compound 7c] | 12.2 ± 3.1 | 28.6 ± 2.1 | 140 | – | –
7 | CCCCN1CCN(c2ccc(C(F)(F)F)cc2F)CC1 [Compound 3e] | -11.6 ± 15.4 | 1410 ± 59.1 | 5.3 | – | –
8 | O=C(NCCCCN1CCN(c2ccccc2F)CC1)c1ccc(-c2cscn2)cc1 [Compound 7a] | 65.8 ± 5 | 2.5 ± 0.22 | 190 | substantial affinity; also recorded: increased affinity | Ki ([2]; full competition curve, [3H]-8-hydroxy-DPAT, at least three experiments, read-out: Ki at 5-HT1A receptor): 14.3 ± 7.1 nM
9 | O=C(NCCCCN1CCN(c2cccc(F)c2)CC1)c1ccc(-c2ccsc2)cc1 [Compound 6b] | 74.7 ± 1.9 | 7.9 ± 1.4 | 296 | substantial affinity | efficacy in adenylyl cyclase inhibition assay [4]: weak partial agonists; efficacy in β-arrestin binding assay [5]: weak partial agonists
10 | CCCCN1CCN(c2cccc(F)c2)CC1 [Compound 3b] | 36.1 ± 2.1 | 1000 ± 118 | 2.5 | partially displace | –
11 | O=C(NCCCCN1CCN(c2ccc(C(F)(F)F)cc2F)CC1)c1ccc(-c2ccsc2)cc1 [Compound 6e] | 6.1 ± 6.8 | 43.3 ± 9.2 | >1800 | – | –
12 | O=C(NCCCCN1CCN(c2ccc(F)cc2OCCF)CC1)c1ccc(-c2cscn2)cc1 [Compound 7f] | 37.1 ± 24.4 | 4.8 ± 0.28 | 72.9 | substantial affinity | –
13 | CCCCN1CCN(c2ccccc2F)CC1 [Compound 3a] | 20.3 ± 16.2 | 96.2 ± 16.9 | 4.0 | partially displace; also recorded: moderate affinity | Ki [2]: 67.8 ± 4.6 nM
14 | N#Cc1ccc(F)c(N2CCN(CCCCNC(=O)c3ccc(-c4cscn4)cc3)CC2)c1 [Compound 7d] | -5.6 ± 18.3 | 28.1 ± 0.8 | 274 | – | –
15 | CCCCN1CCN(c2cc(C#N)ccc2F)CC1 [Compound 3d] | -18 ± 11.1 | 726 ± 101 | 7.5 | – | –
16 | O=C(NCCCCN1CCN(c2cccc(Cl)c2Cl)CC1)c1ccc2c(c1)Cc1ccccc1-2 [NGB 2904] | – | – | – | – | Ki [1]: 2 nM
17 | O=C(NCCCCN1CCN(c2ccc(F)cc2OCCF)CC1)c1ccc(-c2ccsc2)cc1 [Compound 6f] | 16.9 ± 24.4 | 6.1 ± 0.2 | 67.4 | – | –
18 | O=C(NCCCCN1CCN(c2cccc(F)c2)CC1)c1ccc(-c2cscn2)cc1 [Compound 7b] | 74.1 ± 5.3 | 24 ± 5.5 | 165 | substantial affinity | –
19 | CCCCN1CCN(c2ccc(F)cc2)CC1 [Compound 3c] | 5.1 ± 11.2 | 1180 ± 240 | 2.6 | – | –
20 | O=C(NCCCCN1CCN(c2ccc(F)cc2)CC1)c1ccc(-c2ccsc2)cc1 [Compound 6c] | -7.7 ± 23.5 | 12.4 ± 1.6 | 579 | – | efficacy in adenylyl cyclase inhibition assay [4]: weak partial agonist; efficacy in β-arrestin binding assay [5]: very weak partial agonist/antagonist
